Assay results taken from patent US20260042764A1, “COMPOSITIONS AND METHODS FOR INHIBITION OF KRAS” (TheRas, Inc., priority 2022, published 2026).

Assays:
[1] = target: T1, Avi-KRAS G12R (1-169) GppNHp/RAF1 RBD-3xFLAG (52-151) (Homo sapiens, UniProt P01116, G12R); test: Raf1-KRAS G12R-GppNHP disruption HTRF assay (Biological Example 1); assay type: binding; conditions: KRAS G12R, GppNHp-loaded; Table 11
T1 construct: Avi-KRAS G12R (1-169)
Procedure: A protein:protein interaction (PPI) Homogeneous Time Resolved Fluorescence (HTRF) assay was used to determine the effectiveness of compounds of the present disclosure in disrupting KRAS protein and effector RAF1 binding.
The assay buffer included: 50 mM Tris pH 7.5, 100 mM NaCl, 5 mM MgCl2, 0.1% BSA, 0.01% Tween, and 10% DMSO. The bead buffer included: 50 mM Tris pH 7.5, and 0.01% Tween 20. Assay volume of 20 μL was used in a 384 well plate-low volume format.
The HTRF assay employed the following protocol:
Protein mix was prepared in assay buffer, and dispensed on plates, 10 μL per well, then incubated for 1 h at room temperature, with 700 rpm shaking, Reagents mix was prepared and dispensed on plates, 10 μL per well, then incubated for 1 h at room temperature, with 700 rpm shaking.
Data was reported as percentage of activity, with DMSO as 100%. Data was plotted and analyzed using Prism 8.

[2] = target: T2, Avi-KRAS G12D (1-169) GppNHp/RAF1 RBD-3xFLAG (52-151) (Homo sapiens, UniProt P01116, G12D); test: Raf1-KRAS G12D-GppNHP disruption HTRF assay (Biological Example 1); assay type: binding; conditions: KRAS G12D, GppNHp-loaded; Table 11
T2 construct: Avi-KRAS G12D (1-169)
T2 sequence (P01116 1-169 isoform P01116-2 G12D): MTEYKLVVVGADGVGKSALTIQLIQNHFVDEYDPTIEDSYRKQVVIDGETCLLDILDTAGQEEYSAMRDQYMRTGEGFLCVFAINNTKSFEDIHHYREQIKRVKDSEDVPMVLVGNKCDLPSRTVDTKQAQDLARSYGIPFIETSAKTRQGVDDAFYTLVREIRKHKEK
How it was run: (§1)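 Protein mix, 1 h RT, 700 rpm; reagent mix, 1 h RT, 700 rpm; HTRF read. Buffer Tris pH 7.5/NaCl/MgCl2/BSA/Tween, 10% DMSO. Output % activity, DMSO = 100%.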

[3] = target: T3, Avi-KRAS WT (1-169) GppNHp/RAF1 RBD-3xFLAG (52-151) (Homo sapiens, UniProt P01116); test: Raf1-KRAS WT-GppNHP disruption HTRF assay (Biological Example 1); assay type: binding; conditions: KRAS WT, GppNHp-loaded; Table 11
T3 construct: Avi-KRAS WT (1-169)
T3 sequence (P01116 1-169 isoform P01116-2): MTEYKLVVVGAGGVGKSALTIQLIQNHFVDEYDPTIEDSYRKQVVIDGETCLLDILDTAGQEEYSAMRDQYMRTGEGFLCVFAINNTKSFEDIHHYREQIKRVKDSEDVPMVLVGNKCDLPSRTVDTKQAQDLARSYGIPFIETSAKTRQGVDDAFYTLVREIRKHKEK
How it was run: as §1

[4] = target: T4, Avi-KRAS G12V (1-169) GppNHp/RAF1 RBD-3xFLAG (52-151) (Homo sapiens, UniProt P01116, G12V); test: Raf1-KRAS G12V-GppNHP disruption HTRF assay (Biological Example 1); assay type: binding; conditions: KRAS G12V, GppNHp-loaded; Table 11
T4 construct: Avi-KRAS G12V (1-169)
T4 sequence (P01116 1-169 isoform P01116-2 G12V): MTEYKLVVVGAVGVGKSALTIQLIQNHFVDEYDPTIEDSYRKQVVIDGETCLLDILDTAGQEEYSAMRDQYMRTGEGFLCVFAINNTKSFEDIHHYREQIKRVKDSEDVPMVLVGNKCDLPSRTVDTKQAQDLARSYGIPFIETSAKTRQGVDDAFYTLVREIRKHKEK
How it was run: as §1

[5] = system: GP2d cells (KRAS G12D); test: Cell-based pERK HTRF assay in GP2d cell (Biological Example 2); conditions: GP2d (KRAS G12D) cells, pERK HTRF
How it was run: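 60 min compound, 0.25% DMSO, 9-pt half-log curve from 1 μM or 100 nM; DMEM/10% FBS.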

T1 sequence (P01116 1-169 isoform P01116-2 G12R): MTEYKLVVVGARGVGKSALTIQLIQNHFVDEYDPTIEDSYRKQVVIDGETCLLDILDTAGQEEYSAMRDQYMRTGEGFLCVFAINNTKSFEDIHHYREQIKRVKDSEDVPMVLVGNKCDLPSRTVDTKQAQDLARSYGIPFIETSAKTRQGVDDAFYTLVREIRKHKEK

Which results are given for `CN(CCCO)c1nc(OC[C@@]23CCCN2C[C@H](F)C3)nc2c(F)c(-c3ccc(F)c4sc(N)c(C#N)c34)c(C(F)(F)F)cc12` [Compound 73]?
IC50 [1]: 100 to 1000 nM; IC50 [2]: 100 to 1000 nM; IC50 [3]: 100 to 1000 nM; IC50 [4]: 100 to 1000 nM; IC50 ([5]; GP2d): < 100 nM

Which IC50 [1] does the source give for `N#Cc1c(N)sc2c(F)ccc(-c3c(C(F)(F)F)cc4c(N5CC6CCC5CO6)nc(OC[C@@]56CCCN5C[C@H](F)C6)nc4c3F)c12` (some centres unmarked) [Compound 146] here?
The IC50 was 100 to 1000 nM.

And the IC50 [2]?
The IC50 was 100 to 1000 nM.

What about the IC50 [3] of the same compound?
Its IC50 is 100 to 1000 nM.

What about the IC50 [4] of the same compound?
Its IC50 is 100 to 1000 nM.

What about the IC50 ([5]; GP2d) of the same compound?
The IC50 was less than 100 nM.

What does the source list for `CN(c1nc(OC[C@@]23CCCN2C[C@H](F)C3)nc2c(F)c(-c3ccc(F)c4sc(N)c(C#N)c34)c(C(F)(F)F)cc12)[C@H]1CCN(S(C)(=O)=O)C1` [Compound 119]?
IC50 [1]: 1000 to 10000 nM; IC50 [2]: 1000 to 10000 nM; IC50 [3]: 100 to 1000 nM; IC50 [4]: 1000 to 10000 nM; IC50 ([5]; GP2d): < 100 nM

With `CN(c1nc(OC[C@@H]2CC3(CC3)CN2C)nc2c(F)c(-c3ccc(F)c4sc(N)c(C#N)c34)c(C(F)(F)F)cc12)C1CC(O)C1` (some centres unmarked) [Compound 41] as the compound, how does the IC50 [1] read?
The IC50 was 100 to 1000 nM.

And the IC50 [2]?
The IC50 was 100 to 1000 nM.

And the IC50 [3]?
The IC50 was 100 to 1000 nM.

What about the IC50 [4] of the same compound?
The IC50 was 100 to 1000 nM.

And the IC50 ([5]; GP2d)?
Its IC50 is less than 100 nM.

`CN(c1nc(OC[C@@]23CCCN2C[C@H](F)C3)nc2c(F)c(-c3ccc(F)c4sc(N)c(C#N)c34)c(C(F)(F)F)cc12)C1CCC(O)CC1` (some centres unmarked) [Compound 66] was tested. Which IC50 [1] did it give?
Its IC50 is 100 to 1000 nM.

And the IC50 [2]?
Its IC50 is 100 to 1000 nM.

And the IC50 [3]?
The IC50 was 100 to 1000 nM.

And the IC50 [4]?
The IC50 was 100 to 1000 nM.

And the IC50 [5]?
Its IC50 is 100 to 1000 nM.

What does the source list for `N#Cc1c(N)sc2c(F)ccc(-c3c(C(F)(F)F)cc4c(N5C6CCC5COC6)nc(OC[C@@]56CCCN5C[C@H](F)C6)nc4c3F)c12` [Compound 131]?
IC50 [1]: 100 to 1000 nM; IC50 [2]: 100 to 1000 nM; IC50 [3]: 100 to 1000 nM; IC50 [4]: 100 to 1000 nM; IC50 ([5]; GP2d): < 100 nM

`CC(=O)N1CCC(N(C)c2nc(OCC34CCCN3CC(F)C4)nc3c(F)c(-c4ccc(F)c5scc(C#N)c45)c(C(F)(F)F)cc23)C1` (centres unmarked) [Compound 105] was tested. Which IC50 [1] did it give?
The IC50 was greater than 10000 nM.

What about the IC50 [2] of the same compound?
The IC50 was greater than 10000 nM.

And the IC50 [3]?
The IC50 was greater than 10000 nM.

And the IC50 [4]?
Its IC50 is greater than 10000 nM.

What about the IC50 [5] of the same compound?
Its IC50 is greater than 1000 nM.

Which results are given for `CN(c1nc(OC[C@@]23CCCN2C[C@H](F)C3)nc2c(F)c(-c3ccc(F)c4sc(N)c(C#N)c34)c(C(F)(F)F)cc12)[C@H]1CCS(=O)(=O)C1` [Compound 94, 2-amino-4-(4-(((S)-1,1-dioxidotetrahydrothiophen-3-yl)(methyl)amino)-8-fluoro-2-(((2R,7aS)-2-fluorotetrahydro-1H-pyrrolizin-7a(5H)-yl)methoxy)-6-(trifluoromethyl)quinazolin-7-yl)-7-fluorobenzo[b]thiophene-3-carbonitrile]?
IC50 [1]: 100 to 1000 nM; IC50 [2]: 100 to 1000 nM; IC50 [3]: 100 to 1000 nM; IC50 [4]: 100 to 1000 nM; IC50 ([5]; GP2d): < 100 nM

Which IC50 [1] does the source give for `CN(c1nc(OC[C@@]23CCCN2C[C@H](F)C3)nc2c(F)c(-c3ccc(F)c4sc(N)c(C#N)c34)c(C(F)(F)F)cc12)[C@H]1CCC[C@@H]1CO` [Compound 86] here?
Its IC50 is 100 to 1000 nM.

And the IC50 [2]?
The IC50 was 100 to 1000 nM.

What about the IC50 [3] of the same compound?
Its IC50 is 1000 to 10000 nM.

And the IC50 [4]?
The IC50 was 1000 to 10000 nM.

And the IC50 ([5]; GP2d)?
The IC50 was less than 100 nM.

What does the source list for `N#Cc1c(N)sc2c(F)ccc(-c3c(C(F)(F)F)cc4c(N5CC(CO)C5)nc(OC[C@@]56CCCN5C[C@H](F)C6)nc4c3F)c12` [Compound 129]?
IC50 [1]: 100 to 1000 nM; IC50 [2]: 100 to 1000 nM; IC50 [3]: 100 to 1000 nM; IC50 [4]: 100 to 1000 nM; IC50 ([5]; GP2d): < 100 nM

For `CCC(=O)N1CC[C@@H](N(C)c2nc(OC[C@@]34CCCN3C[C@H](F)C4)nc3c(F)c(-c4ccc(F)c5sc(N)c(C#N)c45)c(C(F)(F)F)cc23)C1` [Compound 113], which IC50 [1] is on record?
Its IC50 is 100 to 1000 nM.

What about the IC50 [2] of the same compound?
Its IC50 is 100 to 1000 nM.

And the IC50 [3]?
The IC50 was 100 to 1000 nM.

And the IC50 [4]?
The IC50 was 100 to 1000 nM.

What about the IC50 ([5]; GP2d) of the same compound?
Its IC50 is less than 100 nM.

Which IC50 [1] does the source give for `N#Cc1c(N)sc2c(F)ccc(-c3c(C(F)(F)F)cc4c(N5CC[C@@H](CO)C5)nc(OC[C@@]56CCCN5C[C@H](F)C6)nc4c3F)c12` [Compound 124] here?
Its IC50 is 100 to 1000 nM.

What about the IC50 [2] of the same compound?
The IC50 was 100 to 1000 nM.

And the IC50 [3]?
The IC50 was 100 to 1000 nM.

What about the IC50 [4] of the same compound?
The IC50 was 100 to 1000 nM.

And the IC50 ([5]; GP2d)?
The IC50 was 100 to 1000 nM.

Which IC50 [1] does the source give for `CN(c1nc(OC[C@@]23CCCN2C[C@H](F)C3)nc2cc(-c3ccc(F)c4sc(N)c(C#N)c34)c(C(F)(F)F)cc12)[C@H]1C[C@@H](O)C1` [Compound 33] here?
The IC50 was 100 to 1000 nM.

What about the IC50 [2] of the same compound?
Its IC50 is 100 to 1000 nM.

And the IC50 [3]?
Its IC50 is 100 to 1000 nM.

And the IC50 [4]?
The IC50 was 100 to 1000 nM.

What about the IC50 ([5]; GP2d) of the same compound?
The IC50 was 100 to 1000 nM.
